Measurements taken from US20240238265A1 (priority 2020, published 2024).

Tests used:
[1] = 1 h, pH 7.4
in vitro = conditions: African green monkey
[2] = test system: pseudotyped VSV expressing EBOV glycoprotein; test: microbe, parasite or virus in culture; assay type: cell-based, Ebola virus (EBOV); conditions: Zaire ebolavirus, Vero, 24 h, read-out: EC50 (uM) Pseudotype Assays EBOV
SUDV-Gulu = test: microbe, parasite or virus in culture; assay type: cell-based, Sudan virus (SUDV)
[3] = 1 h, pH 7.4; remark: listed apart in the source
EBOV-Zaire = test: microbe, parasite or virus in culture; assay type: cell-based, Ebola virus (EBOV)
[4] = test system: pseudotyped VSV expressing SUDV glycoprotein; test: microbe, parasite or virus in culture; assay type: cell-based, Sudan virus (SUDV); conditions: Vesicular stomatitis virus, Vero, 24 h, read-out: EC50 (uM) Pseudotype Assays SUDV
[5] = 1 h, pH 7.4; remark: listed apart in the source
[6] = 1 h, pH 7.4; remark: listed apart in the source
[7] = test system: pseudotyped VSV expressing MARV glycoprotein; test: microbe, parasite or virus in culture; assay type: cell-based, Marburg virus (MARV); conditions: Vesicular stomatitis virus, Vero, 24 h, read-out: EC50 (uM) Pseudotype Assays MARV
[8] = 1 h, pH 7.4; remark: listed apart in the source
[9] = 1 h, pH 7.4; remark: listed apart in the source
[10] = test system: pseudotyped VSV expressing BDBV glycoprotein; test: microbe, parasite or virus in culture; assay type: cell-based, Bundibugyo virus (BDBV); conditions: Vesicular stomatitis virus, Vero, 24 h, read-out: EC50 (uM) Pseudotype Assays BDBV
WT EBOV-Mayinga = test: microbe, parasite or virus in culture; assay type: cell-based, Ebola virus (EBOV)
SUDV (strain Gulu) = test: microbe, parasite or virus in culture; assay type: cell-based, Sudan virus (SUDV)
EBOV (strain kikwit) = test: microbe, parasite or virus in culture; assay type: cell-based, Ebola virus (EBOV)

| SMILES | Percent parent compound remaining at 60 minutes in liver microsomes, Monkey [1] | CC50 (in vitro) | EC50 [2] | Percent parent compound remaining at 60 minutes in liver microsomes, Human [3] | EC50 [4] | Percent parent compound remaining at 60 minutes in liver microsomes, Guinea Pig [5] | Percent parent compound remaining at 60 minutes in liver microsomes, Dog [6] | EC50 [7] | Percent parent compound remaining at 60 minutes in liver microsomes, Mouse [8] | Percent parent compound remaining at 60 minutes in liver microsomes, Rat [9] | EC50 [10] | also measured |
| --- | --- | --- | --- | --- | --- | --- | --- | --- | --- | --- | --- | --- |
| CCC=C1C2CC3(C(=S)N[C@H]4CC[C@H](N)CC4)CC1CC(c1ccccc1)(C2)C3 (relative stereo) [Example D2, trans-N-(4-aminocyclohexyl)-3-phenyl-6-propylideneadamantane-1-carbothioamide] | 100% | 1780 nM | 0.051 µM | 100% | 0.072 µM | 100% |  |  |  |  |  | SUDV-Gulu SI50 (CC50/EC50) (SUDV-Gulu): 78; EC50 (SUDV-Gulu; Sudan ebolavirus, Vero, read-out: SUDV-Gulu EC50 (uM)): 0.11 µM; EBOV-Zaire SI50 (CC50/EC50) (EBOV-Zaire): 3.3; EC50 (EBOV-Zaire; Zaire ebolavirus, Vero, read-out: EBOV-Zaire EC50 (uM)): 2.6 µM |
| CC1C2CC3(C(=O)N[C@H]4CC[C@H](N)CC4)CC1CC(c1ccccc1)(C2)C3 (stereo partly drawn) [Example F1, trans-N-(4-aminocyclohexyl)-6-methyl-3-phenyladamantane-1-carboxamide] | 92% | 13300 nM | 0.027 µM | 91% | 0.21 µM | 79% | 82% | > 3 µM | 83% | 99% | 0.065 µM |  |
| CCC1C2CC3(C(=O)N[C@H]4CC[C@H](N)CC4)CC1CC(c1ccccc1)(C2)C3 (stereo partly shown) [Example F2] | 100% | 12600 nM | 0.011 µM | 85% | 0.27 µM | 68% | 80% | 3.1 µM | 48% | 86.5% | 0.03 µM | WT EBOV-Mayinga SI50 (CC50/EC50) (WT EBOV-Mayinga): 706.84; WT EBOV-Mayinga SI90 (CC50/EC90) (WT EBOV-Mayinga): 209.99; EC50 (WT EBOV-Mayinga; Zaire ebolavirus, read-out: WT EBOV-Mayinga EC50 (uM)): 0.014 µM; EC90 (WT EBOV-Mayinga; Zaire ebolavirus, read-out: WT EBOV-Mayinga EC90 (uM)): 0.048 µM; SUDV-Gulu SI50 (CC50/EC50) (SUDV (strain Gulu)): 291.26; EC50 (SUDV (strain Gulu); Sudan ebolavirus, HeLa, read-out: SUDV-Gulu EC50 (uM)): 0.039 µM; EBOV-Kikwit SI50 (CC50/EC50) (EBOV (strain kikwit)): 90.33; EC50 (EBOV (strain kikwit); Zaire ebolavirus, HeLa, read-out: EBOV-Kikwit EC50 (uM)): 0.11 µM |
